Reference: patent US7871981B2, “Inhibition of cell motility, angiogenesis, and metastasis” (The United States of America as represented by the …, priority 1999, dated 2011)

Columns and labels:
HMVE cells = assay: HMVE cell migration, modified Boyden chamber; format: cell-based, human
Experimental: (§1) The migration assay of HUVE and HMEC-1 cells in modified Boyden chambers was adapted from previously described procedures (Murohara et al., Thromb. Vasc. Biol., 19: 1156-61 (1999), Malinda et al., FASEB J., 13: 53-62 (1999)). In brief, Biocoat Cell Environment control inserts (8 micron pore size; Becton Dickinson) were coated with 0.1% gelatin (Sigma) for at least 1 hour at 37° C. and air dried. Lower chambers contained 0.7 ml RPMI+0.1% BSA, to which 20 ng/ml HGF and/or 300 nM Grb2 inhibitors were added. Cells were pre-treated with the indicated concentrations of Grb2 inhibitors for 18-24 hours, trypsinized, washed twice in RPMI+0.1% BSA, added to upper chambers (5×10^4 cells/well) with or without inhibitors in a final volume of 0.5 ml, and incubated for 4 h at 37° C. Cells on the upper surface of each filter were removed with a cotton swab, while cells that had traversed to the bottom surface of the filter were fixed and stained using Diff-Quik (Dade Diagnostics) and counted using a 10× objective. Mean values from 4 randomly selected fields (1×1.4 mm) were calculated for each of triplicate wells per experimental condition. Shown in FIG. 6 is the ratio of growth factor-treated to control migrating cells designated on the y-axis as “Migration (Fold Increase)” or as the mean number of cells per optical field in FIGS. 8-11.

PC3M cells = assay: Growth rate and viability in culture of C-90 treated PC3M cells; format: cell-based, human; conditions: treated 24 h, three week study period
HUVE cells [1] = assay: HUVE cell migration, modified Boyden chamber; format: cell-based, human
Experimental: as §1

MDCK cells = assay: Extracellular matrix invasion assay, MDCK cells in collagen gels; format: cell-based, canine; conditions: HGF 10 ng/ml, peptide 100 nM, 5 days
Experimental: MDCK cell invasion into three-dimensional collagen gels was analyzed as previously described. Briefly, type I collagen (1.5 mg/ml; Cohesion Technologies) was mixed with 10×MEM and sodium bicarbonate (11.76 mg/ml) at a ratio of 8:1:1 (vol:vol:vol) on ice, and 0.4 ml aliquots were dispensed into 16-mm tissue culture wells (Nunc), and allowed to gel at 37° C. for 20 min. Cells were seeded onto gels (1×10^4 cells/well) in 0.4 ml of growth medium containing HGF and/or peptides 1 or 4 as indicated. After 5 days, cells were fixed in situ in 2.5% glutaraldehyde in 0.1 M sodium cacodylate buffer (pH 7.4), and cells that had invaded the gel below the surface monolayer in ten randomly selected fields (1×1.4 mm) were counted microscopically using a 20× phase contrast objective. Depth of cellular invasion into the collagen gel was quantitated in the same ten fields per treatment group using a calibrated fine focusing micrometer. Values were compared using the Student's unpaired t-test and a significant value was taken as P<0.001. Results in Table 1 are shown as the mean number of invading cells/field or mean invasion depth/cell in microns+standard error of the mean.
MDCK cells were left untreated (Control), treated with HGF (10 ng/ml), or HGF+peptide 2 or 4 (100 nM), and invasion into collagen matrices was quantitated microscopically as described above. Values are the mean of at least 10 randomly selected fields±standard error of the mean. Epithelial Tube Formation Assay

B16 mouse melanoma cells = assay: Growth rate and viability in culture of C-90 treated B16 cells; format: cell-based; conditions: same study period
NIH 3T3 fibroblasts = assay: NIH 3T3 fibroblast migration, modified Boyden chamber; format: cell-based
Experimental: as §1
PDGF is implicated in different biological processes such vascular remodeling, wound healing and cancer (for reviews, see Bornfeldt et al., Ann N Y Acad. Sci., 766:416-30, 1995; Gendron, Surv. Ophthalmol., 44:184-5, 1999). Addition of 50 ng/ml PDGF-BB to NIH 3T3 fibroblasts incubated in a modified Boyden chamber results in a dramatic, 20-fold increase in cell migration. […] This observation opens a potential therapeutical use of the Grb2 inhibitor compounds in the treatment of diseases such as cancer, wound healing disorders, vascular complications of diabetes mellitus, vascular nephropathies, and diseases with occurrence of fibrosis.

HUVE cells [2] = assay: HUVE cell proliferation; format: cell-based, human
Experimental: HUVE or HMVE cells were seeded per triplicate in type I collagen-coated 48-well plates (Biocoat) (3000 cells/well) in […] of complete EGM-Bullet Kit medium (BioWhittaker, Walkersville, Md.), allowed to attach for 4 hr and incubated overnight with or without the indicated concentrations of peptide 2. The cultures were rinsed twice in serum-free medium and incubated with EBM medium (BioWhittaker) supplemented with 50 μg/ml heparin, 50 μg/ml ascorbic acid and 10% FCS. After either 4 days (HUVE) or 5 days (HMVE), cells were harvested with trypsin/EDTA and counted with an hemocytometer. The mean number of cells per ml was calculated from 3 independent measures for each of triplicate wells per experimental condition and compared to controls using the Student's unpaired t-test. Results set forth in FIG. 12 are described as the ratio of growth factor-treated to control proliferating cells designated on the y-axis as “Proliferation (Fold Increase)”.

TAC-2 cells = assay: Epithelial tube formation assay, TAC-2 cells in collagen gels; format: cell-based
Experimental: TAC-2 cells were suspended in three-dimensional collagen gels at 1×10^4 cells/ml in collagen and incubated in complete medium containing HGF and/or Grb2 inhibitors as indicated. After 3 days, the cultures were fixed with 2.5% glutaraldehyde in 0.1 M cacodylate buffer, and at least 3 randomly selected fields per experimental condition in each of 3 separate experiments were digitally recorded with brightfield microscopy. The total length of the cords in each individual colony present in each optical field was measured with IPLab. Cord length was considered as “0” in: a) colonies with a spheroidal shape, and b) slightly elongated structures in which the length to diameter ratio was less than 2. The mean values for each experimental condition were compared to controls using the Student's unpaired t-test. Results in FIG. 5 are described as mean total cord length (in μm) per field.

Question: How did the VEGF-induced cell migration (HMVE cells; VEGF) turn out when `NC(=O)C[C@H](NC(=O)C1(NC(=O)[C@H](Cc2ccc(C(C(=O)O)C(=O)O)cc2)NC(=O)C(=O)O)CCCCC1)C(=O)NCCCc1cccc2ccccc12` [peptide 2, (N-oxalyl-4-malonyl)-Phe-Ac6c-Asn-NH-(3-naphthalen-1-yl-propyl)] was run?
Answer: Its VEGF-induced cell migration is “significantly (p<0.001) reverted”.

Question: What about the “cell migration induced by HGF” value (HMVE cells; peptide 300 nM, HGF 0-50 ng/ml) of the same compound?
Answer: The value was “abolished”.

Question: And the “abolition of the effect of the optimal concentration of bFGF” value (HMVE cells; peptide 300 nM, bFGF 5 ng/ml)?
Answer: Its value is 72%.

Question: What about the “biphasic stimulatory activity of bFGF on migration” value (HMVE cells; peptide 300 nM, bFGF 0.2-50 ng/ml) of the same compound?
Answer: Its value is “significantly (p<0.001) inhibited”.

Question: And the “growth rate and viability in culture” value (PC3M cells)?
Answer: Its value is “identical growth rate and viability as untreated cells”.

Question: What about the VEGF-induced cell migration (HUVE cells [1]; VEGF) of the same compound?
Answer: Its VEGF-induced cell migration is “significantly (p<0.001) reverted”.

Question: What about the PMA-induced cell migration (HUVE cells [1]; peptide 300 nM, PMA 40 ng/ml) of the same compound?
Answer: The PMA-induced cell migration was “dramatically reverted to basal levels”.

Question: What about the “Mean Invading Cells/Field” value (MDCK cells) of the same compound?
Answer: The value was 12.6 ± 1.9.

Question: What about the “Mean Invasion Depth/Cell” value (MDCK cells) of the same compound?
Answer: The value was 17.9 ± 1.9 μm.

Question: And the “cell viability or growth rate in culture” value (B16 mouse melanoma cells)?
Answer: Its value is “no differences in cell viability or growth rate”.

Question: And the “PDGF-BB-induced NIH 3T3 cell migration” value (NIH 3T3 fibroblasts; co-added with PDGF-BB 50 ng/ml)?
Answer: The value was “inhibits NIH 3T3 cell migration in a significant (p<0.001), dose-dependent manner”.

Question: And the “reduction in the mean number of cells per field” value (NIH 3T3 fibroblasts; peptide 30 nM, PDGF-BB 50 ng/ml)?
Answer: The value was 60%.

Question: What about the “HGF- VEGF-induced HUVE cell proliferation” value (HUVE cells [2]; peptide 30 nM) of the same compound?
Answer: Its value is “failed to significantly (p=0.05) inhibit”.

Question: What about the “bFGF-dependent HUVE cell proliferation” value (HUVE cells [2]; peptide 30 nM, p<0.0001) of the same compound?
Answer: The value was “inhibited”.

Question: And the “serum-dependent HUVE cell proliferation” value (HUVE cells [2]; peptide 30 nM, p<0.001)?
Answer: The value was “inhibited”.

Question: And the “HGF- VEGF-induced HUVE cell proliferation (cell counts)” value (HUVE cells [2]; peptide 300 nM)?
Answer: The value was “significant (p<0.0001) reduction in cell counts”.

Question: What about the “HGF-induced elongation of epithelial tubes (cord length)” value (TAC-2 cells; HGF 20 ng/ml, 3 days) of the same compound?
Answer: The value was “significantly (p<0.0001) abrogate”.

Question: And the “concentration at which a sub-maximal inhibitory effect is already observed” value (TAC-2 cells; HGF-induced tube elongation)?
Answer: The value was 30 nM.
